# Experimental data taken from ChEMBL document CHEMBL3885861, “Open TG-GATES”.
# Organism: Rattus norvegicus
# Experiment: Open TG-GATES - Regimen: Single
# Assay type: toxicity, organism-based, Sprague-Dawley
# Parameters: regimen Single, gender Male, age 6 weeks
# Conditions: in vivo, po, 30 mg/kg, route gavage, dose level Middle; for APTT / Bas / Eos / Fbg / Hb / Ht / Lym / MCH / MCHC / MCV / Mono / Neu / PT / Plat / RBC / Ret / WBC: tissue Blood; for KIDNEY_L / KIDNEY_R / KIDNEY_TOTAL: tissue Kidney; for LIVER: tissue Liver; for A/G / ALP / ALT / AST / BUN / CRE / Ca / Cl / DBIL / GLC / IP / K / LDH / Na / PL / RALB / TBIL / TC / TG / TP / gamma-GTP: tissue Plasma
smiles,measurement,setting,value
CCCc1cc(=O)[nH]c(=S)[nH]1 [PROPYLTHIOURACIL],TERMINAL_BW,3 h,179.8 g
same,APTT,3 h,16 s
same,Bas,3 h,0%
same,Eos,3 h,1%
same,Fbg,3 h,211.4 mg/dL
same,Hb,3 h,13.2 g/dL
same,Ht,3 h,40%
same,Lym,3 h,80.2%
same,MCH,3 h,22.2 pg
same,MCHC,3 h,33%
same,MCV,3 h,67.2 fL
same,Mono,3 h,5.6%
same,Neu,3 h,13.6%
same,PT,3 h,12.8 s
same,Plat,3 h,100.4 x10_4/uL
same,RBC,3 h,595.4 x10_4/ul
same,Ret,3 h,10.1%
same,WBC,3 h,101.6 x10_2/uL
same,KIDNEY_L,3 h,0.8 g
same,KIDNEY_R,3 h,0.8 g
same,KIDNEY_TOTAL,3 h,1.7 g
same,LIVER,3 h,8.4 g
same,A/G,3 h,2
same,ALP,3 h,1017.6 IU/L
same,ALT,3 h,32.6 IU/L
same,AST,3 h,65.4 IU/L
same,BUN,3 h,12 mg/dL
same,CRE,3 h,0.4 mg/dL
same,Ca,3 h,11.2 mg/dL
same,Cl,3 h,105.2 meq/L
same,DBIL,3 h,0.042 mg/dL
same,GLC,3 h,193.6 mg/dL
same,IP,3 h,10.8 mg/dL
same,K,3 h,4.4 meq/L
same,LDH,3 h,86.6 IU/L
same,Na,3 h,138.2 meq/L
same,PL,3 h,135 mg/dL
same,RALB,3 h,3.6 g/dL
same,TBIL,3 h,0.3 mg/dL
same,TC,3 h,77.2 mg/dL
same,TG,3 h,30.6 mg/dL
same,TP,3 h,5.5 g/dL
same,gamma-GTP,3 h,1.2 IU/L
same,TERMINAL_BW,6 h,177.6 g
same,APTT,6 h,16.2 s
same,Bas,6 h,0%
same,Eos,6 h,1%
same,Fbg,6 h,208.8 mg/dL
same,Hb,6 h,13.2 g/dL
same,Ht,6 h,39.3%
same,Lym,6 h,77.2%
same,MCH,6 h,22.2 pg
same,MCHC,6 h,33.5%
same,MCV,6 h,66.3 fL
same,Mono,6 h,6.8%
same,Neu,6 h,15.2%
same,PT,6 h,12.7 s
same,Plat,6 h,107.3 x10_4/uL
same,RBC,6 h,593.4 x10_4/ul
same,Ret,6 h,10.5%
same,WBC,6 h,83.3 x10_2/uL
same,KIDNEY_L,6 h,0.8 g
same,KIDNEY_R,6 h,0.9 g
same,KIDNEY_TOTAL,6 h,1.7 g
same,LIVER,6 h,8.1 g
same,A/G,6 h,2
same,ALP,6 h,892.6 IU/L
same,ALT,6 h,31.8 IU/L
same,AST,6 h,63.8 IU/L
same,BUN,6 h,12.8 mg/dL
same,CRE,6 h,0.5 mg/dL
same,Ca,6 h,11.2 mg/dL
same,Cl,6 h,105 meq/L
same,DBIL,6 h,0.062 mg/dL
same,GLC,6 h,182 mg/dL
same,IP,6 h,10.8 mg/dL
same,K,6 h,4.9 meq/L
same,LDH,6 h,89.6 IU/L
same,Na,6 h,138.4 meq/L
same,PL,6 h,127.4 mg/dL
same,RALB,6 h,3.7 g/dL
same,TBIL,6 h,0.3 mg/dL
same,TC,6 h,70.4 mg/dL
same,TG,6 h,36.4 mg/dL
same,TP,6 h,5.5 g/dL
same,gamma-GTP,6 h,1.8 IU/L
same,TERMINAL_BW,9 h,178.7 g
same,APTT,9 h,15.7 s
same,Bas,9 h,0%
same,Eos,9 h,1.6%
same,Fbg,9 h,216 mg/dL
same,Hb,9 h,13.3 g/dL
same,Ht,9 h,40%
same,Lym,9 h,73.4%
same,MCH,9 h,22.1 pg
same,MCHC,9 h,33.2%
same,MCV,9 h,66.6 fL
same,Mono,9 h,8.2%
same,Neu,9 h,17%
same,PT,9 h,12.7 s
same,Plat,9 h,102.7 x10_4/uL
same,RBC,9 h,601.2 x10_4/ul
same,Ret,9 h,9.8%
same,WBC,9 h,64.5 x10_2/uL
same,KIDNEY_L,9 h,0.9 g
same,KIDNEY_R,9 h,0.9 g
same,KIDNEY_TOTAL,9 h,1.7 g
same,LIVER,9 h,7.5 g
same,A/G,9 h,1.9
same,ALP,9 h,878.2 IU/L
same,ALT,9 h,30.4 IU/L
same,AST,9 h,61.6 IU/L
same,BUN,9 h,12.2 mg/dL
same,CRE,9 h,0.5 mg/dL
same,Ca,9 h,10.5 mg/dL
same,Cl,9 h,106.4 meq/L
same,DBIL,9 h,0 mg/dL
same,GLC,9 h,194.2 mg/dL
same,IP,9 h,10.6 mg/dL
same,K,9 h,4.7 meq/L
same,LDH,9 h,92.4 IU/L
same,Na,9 h,138.8 meq/L
same,PL,9 h,131 mg/dL
same,RALB,9 h,3.6 g/dL
same,TBIL,9 h,0.5 mg/dL
same,TC,9 h,77.6 mg/dL
same,TG,9 h,33.8 mg/dL
same,TP,9 h,5.5 g/dL
same,gamma-GTP,9 h,1 IU/L
same,TERMINAL_BW,24 h,189 g
same,APTT,24 h,16 s
same,Bas,24 h,0%
same,Eos,24 h,1%
same,Fbg,24 h,206.6 mg/dL
same,Hb,24 h,13.6 g/dL
same,Ht,24 h,40.7%
same,Lym,24 h,78%
same,MCH,24 h,21.9 pg
same,MCHC,24 h,33.5%
same,MCV,24 h,65.2 fL
same,Mono,24 h,9%
same,Neu,24 h,12.4%
same,PT,24 h,12.3 s
same,Plat,24 h,101.4 x10_4/uL
same,RBC,24 h,623.4 x10_4/ul
same,Ret,24 h,9.1%
same,WBC,24 h,101.7 x10_2/uL
same,KIDNEY_L,24 h,0.9 g
same,KIDNEY_R,24 h,0.9 g
same,KIDNEY_TOTAL,24 h,1.7 g
same,LIVER,24 h,9.5 g
same,A/G,24 h,2
same,ALP,24 h,911.4 IU/L
same,ALT,24 h,40.8 IU/L
same,AST,24 h,65 IU/L
same,BUN,24 h,16.8 mg/dL
same,CRE,24 h,0.5 mg/dL
same,Ca,24 h,11 mg/dL
same,Cl,24 h,106.8 meq/L
same,DBIL,24 h,0.018 mg/dL
same,GLC,24 h,185.4 mg/dL
same,IP,24 h,7.1 mg/dL
same,K,24 h,5 meq/L
same,LDH,24 h,90.6 IU/L
same,Na,24 h,139.8 meq/L
same,PL,24 h,157.4 mg/dL
same,RALB,24 h,3.8 g/dL
same,TBIL,24 h,0.3 mg/dL
same,TC,24 h,85.2 mg/dL
same,TG,24 h,112 mg/dL
same,TP,24 h,5.7 g/dL
same,gamma-GTP,24 h,1.2 IU/L
